Data as given in the CheMixHub viscosity set.
Values joined by “and” are separate entries in the source; they are usually repeats but may differ in a detail not shown here. Equal values may be shown once. ± gives the uncertainty stated by the source.

Test: xn = mol fraction of the nth substance listed

Cc1ccc(O)cc1 + c1ccccc1
308.15 K, 101 kPa
Settings | viscosity [mPa·s]
x1 = 0.0751 | 0.6025 ± 0.0052
x1 = 0.1778 | 0.749 ± 0.0063
x1 = 0.292 | 0.9762 ± 0.008
x1 = 0.4109 | 1.327 ± 0.011
x1 = 0.532 | 1.87 ± 0.015
x1 = 0.6653 | 2.706 ± 0.021
x1 = 0.7851 | 4.175 ± 0.031
x1 = 0.8374 | 4.963 ± 0.037
x1 = 0.9459 | 7.462 ± 0.051

Cc1ccc(O)cc1 + CC(=O)c1ccccc1
303.15 K, 101 kPa
Settings | viscosity [mPa·s]
x2 = 0.1137 | 10.7 ± 0.25
x2 = 0.1526 | 10.25 ± 0.23
x2 = 0.3364 | 8.205 ± 0.16
x2 = 0.426 | 7.246 ± 0.13
x2 = 0.4932 | 6.538 ± 0.11
x2 = 0.5636 | 5.804 ± 0.089
x2 = 0.758 | 3.823 ± 0.046
x2 = 0.8099 | 3.31 ± 0.038
x2 = 0.9433 | 2.026 ± 0.019

C1CC[NH2+]C1.CCCCCCCC(=O)[O-] + CCCCO
viscosity [mPa·s], 101 kPa
Settings | x1 = 0.1198 | x1 = 0.2524 | x1 = 0.3299 | x1 = 0.4745 | x1 = 0.6187 | x1 = 0.7174 | x1 = 0.7912 | x1 = 0.9269
293.15 K | 5.39 ± 1.1 | 10.82 ± 2.2 | 13.21 ± 2.6 | 22.51 ± 4.5 | 34.14 ± 6.9 | 44.35 ± 8.9 | 51.93 ± 10 | 65.75 ± 13
298.15 K | 6.9 ± 1.4 | 10.82 ± 2.2 | – | 21.6 ± 4.3 | 30.39 ± 6.1 | 38.92 ± 7.8 | 44.89 ± 9 | 57.02 ± 11
303.15 K | 4.75 ± 0.95 | 8.64 ± 1.7 | 11.15 ± 2.2 | 17 ± 3.4 | 24.8 ± 5 | 31.23 ± 6.3 | 35.44 ± 7.1 | 45.4 ± 9.2
308.15 K | 4.32 ± 0.87 | 7.79 ± 1.6 | 10.03 ± 2 | 14.95 ± 3 | 21.43 ± 4.3 | 26.63 ± 5.4 | 29.97 ± 6 | 38.73 ± 7.8
313.15 K | 3.6 ± 0.72 | 6.6 ± 1.3 | 8.5 ± 1.7 | 13 ± 2.6 | 17.8 ± 3.6 | 21.5 ± 4.3 | 25.3 ± 5.1 | 31.7 ± 6.4

Cc1ccc(O)cc1 + C1CCCCC1
viscosity [mPa·s]
Settings | 101 kPa | 101.33 kPa
303.15 K, x2 = 0.1014 | 7.352 ± 0.11 | 7.352 ± 0.2
303.15 K, x2 = 0.1683 | 5.44 ± 0.081 | 5.44 ± 0.14
303.15 K, x2 = 0.3021 | 4.004 ± 0.06 | 4.004 ± 0.11
303.15 K, x2 = 0.3949 | 2.988 ± 0.045 | 2.988 ± 0.078
303.15 K, x2 = 0.5007 | 2.25 ± 0.034 | 2.25 ± 0.059
303.15 K, x2 = 0.6007 | 1.732 ± 0.026 | 1.732 ± 0.045
303.15 K, x2 = 0.7004 | 1.35 ± 0.02 | 1.35 ± 0.035
303.15 K, x2 = 0.7973 | 1.11 ± 0.017 | 1.1 ± 0.029
303.15 K, x2 = 0.8999 | 0.909 ± 0.014 | 0.909 ± 0.024
308.15 K, x1 = 0.0725 | 0.8571 ± 0.007 | –
308.15 K, x1 = 0.2007 | 1.086 ± 0.0087 | –
308.15 K, x1 = 0.3167 | 1.393 ± 0.011 | –
308.15 K, x1 = 0.3977 | 1.673 ± 0.013 | –
308.15 K, x1 = 0.5218 | 2.252 ± 0.017 | –
308.15 K, x1 = 0.6527 | 3.175 ± 0.024 | –
308.15 K, x1 = 0.7637 | 4.421 ± 0.033 | –
308.15 K, x1 = 0.8681 | 6.119 ± 0.043 | –
308.15 K, x1 = 0.9441 | 7.786 ± 0.053 | –

Cc1cccc(C)c1 + CC(C)(C)O
308.15 K, 101 kPa
Settings | viscosity [mPa·s]
x2 = 0.0642 | 0.542 ± 0.011
x2 = 0.1265 | 0.59 ± 0.012
x2 = 0.2068 | 0.633 ± 0.013
x2 = 0.3029 | 0.667 ± 0.014
x2 = 0.3766 | 0.72 ± 0.015
x2 = 0.4301 | 0.756 ± 0.016
x2 = 0.4992 | 0.793 ± 0.017
x2 = 0.5983 | 0.909 ± 0.019
x2 = 0.6924 | 1.013 ± 0.021
x2 = 0.7966 | 1.296 ± 0.027
x2 = 0.908 | 1.731 ± 0.036

Nc1ccccc1Cl + Cc1cccc(Cl)c1
viscosity [mPa·s], 101 kPa
Settings | x1 = 0.1012 | x1 = 0.2056 | x1 = 0.3125 | x1 = 0.4056 | x1 = 0.5026 | x1 = 0.6025 | x1 = 0.7145 | x1 = 0.818 | x1 = 0.91
303.15 K | 0.9087 ± 0.023 | 1.109 ± 0.027 | 1.348 ± 0.032 | 1.587 ± 0.038 | 1.867 ± 0.044 | 2.19 ± 0.051 | 2.595 ± 0.06 | 3.009 ± 0.069 | 3.408 ± 0.077
308.15 K | 0.8581 ± 0.022 | 1.047 ± 0.026 | 1.269 ± 0.031 | 1.489 ± 0.036 | 1.743 ± 0.041 | 2.032 ± 0.047 | 2.386 ± 0.055 | 2.74 ± 0.063 | 3.073 ± 0.07
313.15 K | 0.812 ± 0.022 | 0.99 ± 0.025 | 1.199 ± 0.029 | 1.402 ± 0.034 | 1.634 ± 0.039 | 1.893 ± 0.044 | 2.205 ± 0.051 | 2.507 ± 0.058 | 2.786 ± 0.064
318.15 K | 0.7685 ± 0.021 | 0.9398 ± 0.024 | 1.138 ± 0.028 | 1.329 ± 0.032 | 1.544 ± 0.037 | 1.78 ± 0.042 | 2.056 ± 0.048 | 2.316 ± 0.053 | 2.545 ± 0.059

Cc1cccc(C)c1 + O=C1CCCO1
viscosity [mPa·s], 101.33 kPa
Settings | x2 = 0.1012 | x2 = 0.214 | x2 = 0.3091 | x2 = 0.4022 | x2 = 0.5343 | x2 = 0.5955 | x2 = 0.7101 | x2 = 0.8371 | x2 = 0.9027
293.15 K | 0.69 ± 0.007 | 0.777 ± 0.008 | 0.859 ± 0.008 | 0.948 ± 0.009 | 1.093 ± 0.01 | 1.169 ± 0.011 | 1.332 ± 0.012 | 1.544 ± 0.014 | 1.671 ± 0.015
298.15 K | 0.648 ± 0.006 | 0.725 ± 0.007 | 0.798 ± 0.008 | 0.88 ± 0.008 | 1.016 ± 0.01 | 1.088 ± 0.01 | 1.235 ± 0.011 | 1.437 ± 0.013 | 1.552 ± 0.014
303.15 K | 0.61 ± 0.006 | 0.679 ± 0.007 | 0.752 ± 0.007 | 0.829 ± 0.008 | 0.951 ± 0.009 | 1.013 ± 0.01 | 1.147 ± 0.011 | 1.325 ± 0.012 | 1.431 ± 0.013
308.15 K | 0.573 ± 0.006 | 0.636 ± 0.006 | 0.692 ± 0.007 | 0.761 ± 0.007 | 0.875 ± 0.008 | 0.936 ± 0.009 | 1.06 ± 0.01 | 1.226 ± 0.011 | 1.323 ± 0.012

CC1(C)SC2C(NC(=O)C(N)c3ccccc3)C(=O)N2C1C(=O)O (stereo unspecified) + O
viscosity, 101 kPa
Settings | x1 = 9e-06 | x1 = 1e-05 | x1 = 2e-05 | x1 = 3.2e-05 | x1 = 3.6e-05 | x1 = 4e-05 | x1 = 5e-05 | x1 = 6.8e-05 | x1 = 7e-05 | x1 = 7.2e-05
305.15 K | 0.7656 ± 0.0095 mPa·s | 0.7569 ± 0.016 mPa·s | 0.7618 ± 0.02 mPa·s and 0.763 ± 0.016 mPa·s | 0.7637 ± 0.02 mPa·s | 0.7729 ± 0.0095 mPa·s | 0.7702 ± 0.016 mPa·s | 0.7649 ± 0.02 mPa·s | 0.7656 ± 0.02 mPa·s | 0.773 ± 0.017 mPa·s | 0.7701 ± 0.0095 mPa·s
310.15 K | 0.7019 ± 0.0087 mPa·s | 0.6941 ± 0.015 mPa·s | 0.6924 ± 0.018 mPa·s and 0.6965 ± 0.015 mPa·s | 0.6948 ± 0.018 mPa·s | 0.6993 ± 0.0086 mPa·s | 0.6989 ± 0.015 mPa·s | 0.6964 ± 0.018 mPa·s | 0.6976 ± 0.018 mPa·s | 0.7041 ± 0.015 mPa·s | 0.7032 ± 0.0087 mPa·s
315.15 K | 0.6419 ± 0.0079 mPa·s | 0.6361 ± 0.014 mPa·s | 0.6342 ± 0.017 mPa·s and 0.6376 ± 0.014 mPa·s | 0.6356 ± 0.017 mPa·s | 0.6442 ± 0.008 mPa·s | 0.6407 ± 0.014 mPa·s | 0.6381 ± 0.017 mPa·s | 0.6398 ± 0.017 mPa·s | 0.6421 ± 0.014 mPa·s | 0.6399 ± 0.0079 mPa·s

O=S1(=O)CCCC1 + COCCO
303.15 K, 101 kPa
Settings | viscosity [mPa·s]
x1 = 0.0483 | 1.2 ± 0.01
x1 = 0.0994 | 1.054 ± 0.009
x1 = 0.1962 | 1.489 ± 0.013
x1 = 0.2953 | 2.053 ± 0.018
x1 = 0.3486 | 2.251 ± 0.02
x1 = 0.4007 | 2.703 ± 0.024
x1 = 0.4569 | 3.258 ± 0.03
x1 = 0.4997 | 3.863 ± 0.036
x1 = 0.5991 | 4.997 ± 0.048
x1 = 0.7126 | 6.301 ± 0.063
x1 = 0.7971 | 7.413 ± 0.076
x1 = 0.8496 | 8.345 ± 0.087
x1 = 0.8986 | 9.013 ± 0.096

CCCCCCCCCCCCCCCCCC(=O)O + CN1CCC[C@H]1c1cccnc1
viscosity [mPa·s], 101 kPa
Settings | x2 = 0.3991 | x2 = 0.4952 | x2 = 0.6034 | x2 = 0.6986 | x2 = 0.7961 | x2 = 0.8973
298.15 K | – | – | – | 21.18 ± 0.24 | 14.22 ± 0.17 | 7.79 ± 0.096
323.15 K | 26.04 ± 0.26 | 18.6 ± 0.2 | 12.3 ± 0.14 | 8.571 ± 0.11 | 6.045 ± 0.081 | 4.003 ± 0.053

Cc1cccc(C)c1 + CCCCCCCCCCCC
323.15 K, 100 kPa
Settings | viscosity
x1 = 0.453 | 0.682 ± 0.028 mPa·s and 0.683 ± 0.028 mPa·s
x1 = 0.757 | 0.538 ± 0.022 mPa·s and 0.539 ± 0.022 mPa·s
